Results reported in US10816493B2, “Electrical measurement method, electrical measurement device, and blood condition analysis system” (SONY CORPORATION, priority 2015, dated 2020).

Tested on: blood coagulation
Experiment: Permittivity measurement over time of blood samples with calcium chloride added (coagulation start-indicating parameter)
Format: cell-based
Description: Experimental Example 2 was performed to determine whether and how the results of measurement of an electrical characteristic differ between a case using a compound having an inhibitory effect on blood sedimentation and having no influence on the electrical characteristic parameter used for analysis and a case using a compound having an influence on the electrical characteristic parameter. In this experimental example, permittivity was used as an example of the electrical characteristic. In addition, a coagulation start-indicating parameter for use in blood coagulation analysis was focused on as an example of the electrical characteristic parameter for use in analysis. Furthermore, in Experimental Example 2, measurement was performed on blood samples containing citric acid added as an anticoagulant with calcium chloride added as a blood coagulation […].
Carboxymethyl dextran as an example of the blood sedimentation inhibitor was dissolved at a concentration of 10% w/v in PBS. The carboxymethyl dextran-containing PBS solution was added in an amount of 10% to a whole blood sample with a high blood sedimentation rate, so that a sample of Example 3 was obtained.
A control sample was prepared by adding a blood sedimentation inhibitor-free PBS in an amount of 10% to the same whole blood sample as in Example 3.
Betaine was dissolved at a concentration of 10% w/v in PBS. The resulting blood sedimentation inhibitor-containing PBS solution was added in an amount of 10% to a blood sample with sedimentation abnormalities, prepared by a method similar to that in Experimental Example 1, so that a sample of Comparative Example 3 was obtained.
A control sample was prepared by adding a blood sedimentation inhibitor-free PBS in an amount of 10% to a blood sample with sedimentation abnormalities, prepared by a method similar to that in Experimental Example 1.
The permittivity of 180 μL of each of the samples of Example 3, Control for Example, Comparative Example 3, and Control for Comparative Example, prepared as described above, was measured at a frequency of 1 MHz over time.

C[N+](C)(C)CC(=O)O [Comparative Example 3, Betaine]
analysis of blood coagulation start time using a parameter indicating the time at which coagulation started (10% w/v in PBS added in an amount of 10%, citric acid plus calcium chloride, permittivity at 1 MHz): impossible to extract any parameter indicating the coagulation start time | signal behavior compared with the control sample (10% w/v in PBS added in an amount of 10%, citric acid plus calcium chloride, permittivity at 1 MHz, FIGS. 6 and 7): completely different from that of the control sample | adverse effect on the analysis (usability as blood sedimentation inhibitor) (blood coagulation analysis based on permittivity): has an adverse effect on the analysis | inhibitory effect on blood sedimentation (in words) (suggested from results of Experimental Example 2): have an inhibitory effect on blood sedimentation
